Assays:
Splenocyte [1] = test: Cytotoxicity against Balb/c mouse splenocytes assessed as metabolic activity at 1 to 10 nM incubated for 24 hrs by MTT assay; assay type: toxicity, cell-based; conditions: 0.01 µM, dose 1-10 nM
[2] = Drug uptake in mouse C57BL/6 brain at 0.4 mg/kg,iv measured upto 240 mins by LC-MS/MS analysis; assay type: ADME, organism-based; conditions: in vivo, 4 h
[3] = Drug uptake in mouse C57BL/6 brain at 0.4 mg/kg,po measured upto 240 mins by LC-MS/MS analysis; assay type: ADME, organism-based; conditions: in vivo, 4 h
[4] = Metabolic stability in human liver microsomes assessed as parent compound remaining incubated for 120 mins; assay type: ADME, Microsome; conditions: read-out: Stability
[5] = target: Mitogen-activated protein kinase 14 (Homo sapiens, UniProt Q16539); test: Inhibition of human p38 MAPK alpha incubated for 1 hr by photometric method
Mitogen-activated protein kinase 14, sequence (Q16539 whole entry): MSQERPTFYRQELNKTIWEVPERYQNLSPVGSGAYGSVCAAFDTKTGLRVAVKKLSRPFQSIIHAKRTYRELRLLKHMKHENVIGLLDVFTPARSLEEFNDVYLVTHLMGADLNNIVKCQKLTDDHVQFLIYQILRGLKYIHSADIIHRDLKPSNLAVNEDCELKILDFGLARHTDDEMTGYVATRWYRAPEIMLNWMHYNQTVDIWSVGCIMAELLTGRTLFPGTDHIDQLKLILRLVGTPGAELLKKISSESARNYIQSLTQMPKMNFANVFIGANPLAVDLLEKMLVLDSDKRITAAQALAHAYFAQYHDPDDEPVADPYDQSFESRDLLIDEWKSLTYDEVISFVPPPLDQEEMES

[6] = Cytotoxicity against Balb/c mouse splenocytes assessed as metabolic activity at 100 nM incubated for 24 hrs by MTT assay relative to LPS-stimulated splenocytes; assay type: toxicity, cell-based, Splenocyte; conditions: read-out: Activity
Blood [7] = test: Antiinflammatory activity against LPS-stimulated C57BL/6 mouse whole blood assessed as reduction in TNF-alpha at 1 nM incubated for 24 hrs by ELISA based method; assay type: functional; parameters: scale not given: the % may be the effect or the level left
CYP2C19 = CYP2C19 (Homo sapiens, UniProt P33261); test: Inhibition of human recombinant CYP2C19 at 10 uM relative to control; assay type: ADME
CYP2C19, sequence (P33261 whole entry): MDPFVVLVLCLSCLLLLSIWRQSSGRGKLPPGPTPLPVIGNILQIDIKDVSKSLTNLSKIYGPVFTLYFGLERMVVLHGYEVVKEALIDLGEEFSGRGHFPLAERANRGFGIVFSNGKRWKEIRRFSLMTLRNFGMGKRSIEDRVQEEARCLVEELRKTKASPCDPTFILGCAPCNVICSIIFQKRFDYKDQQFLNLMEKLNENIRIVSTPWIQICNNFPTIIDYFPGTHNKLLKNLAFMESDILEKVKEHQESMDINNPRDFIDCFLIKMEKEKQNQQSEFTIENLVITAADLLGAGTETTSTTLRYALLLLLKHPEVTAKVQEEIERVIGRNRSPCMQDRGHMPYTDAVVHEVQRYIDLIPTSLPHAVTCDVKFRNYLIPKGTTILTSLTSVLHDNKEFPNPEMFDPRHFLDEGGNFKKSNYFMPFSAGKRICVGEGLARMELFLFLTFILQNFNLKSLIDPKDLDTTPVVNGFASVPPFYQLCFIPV

CYP2D6 = CYP2D6 (Homo sapiens, UniProt P10635); test: Inhibition of human recombinant CYP2D6 at 10 uM relative to control; assay type: ADME
CYP2D6, sequence (P10635 whole entry): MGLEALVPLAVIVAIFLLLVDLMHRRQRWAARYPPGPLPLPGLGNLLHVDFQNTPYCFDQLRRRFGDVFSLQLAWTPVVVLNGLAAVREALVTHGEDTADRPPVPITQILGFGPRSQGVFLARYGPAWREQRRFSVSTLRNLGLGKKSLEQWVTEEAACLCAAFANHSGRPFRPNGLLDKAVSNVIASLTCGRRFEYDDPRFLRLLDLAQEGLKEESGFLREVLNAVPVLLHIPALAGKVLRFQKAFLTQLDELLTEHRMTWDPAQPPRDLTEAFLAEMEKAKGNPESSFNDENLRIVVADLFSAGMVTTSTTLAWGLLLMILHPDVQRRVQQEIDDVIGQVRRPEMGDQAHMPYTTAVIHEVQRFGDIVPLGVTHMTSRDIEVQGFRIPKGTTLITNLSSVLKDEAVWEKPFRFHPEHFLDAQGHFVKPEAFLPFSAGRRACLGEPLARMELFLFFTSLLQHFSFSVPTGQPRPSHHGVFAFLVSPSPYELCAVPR

CYP2C9 = CYP2C9 (Homo sapiens, UniProt P11712); test: Inhibition of human recombinant CYP2C9 at 10 uM relative to control; assay type: ADME
CYP2C9, sequence (P11712 whole entry): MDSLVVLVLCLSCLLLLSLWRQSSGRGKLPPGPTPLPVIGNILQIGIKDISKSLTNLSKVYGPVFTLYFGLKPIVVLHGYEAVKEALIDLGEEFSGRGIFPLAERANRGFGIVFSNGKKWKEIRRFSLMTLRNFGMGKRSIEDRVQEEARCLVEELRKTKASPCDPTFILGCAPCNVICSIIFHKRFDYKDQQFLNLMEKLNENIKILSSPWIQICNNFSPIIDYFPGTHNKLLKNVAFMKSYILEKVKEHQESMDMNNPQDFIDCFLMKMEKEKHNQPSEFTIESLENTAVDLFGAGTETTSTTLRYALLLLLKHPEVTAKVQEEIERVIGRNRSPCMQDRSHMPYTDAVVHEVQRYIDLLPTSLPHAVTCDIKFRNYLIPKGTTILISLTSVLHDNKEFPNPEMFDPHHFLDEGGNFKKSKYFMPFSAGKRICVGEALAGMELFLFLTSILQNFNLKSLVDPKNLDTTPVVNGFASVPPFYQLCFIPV

CYP1A2 = target: T1, CYP1A2 (Homo sapiens, UniProt P05177); test: Inhibition of human recombinant CYP1A2 at 10 uM relative to control; assay type: ADME
T1 sequence (P05177 whole entry): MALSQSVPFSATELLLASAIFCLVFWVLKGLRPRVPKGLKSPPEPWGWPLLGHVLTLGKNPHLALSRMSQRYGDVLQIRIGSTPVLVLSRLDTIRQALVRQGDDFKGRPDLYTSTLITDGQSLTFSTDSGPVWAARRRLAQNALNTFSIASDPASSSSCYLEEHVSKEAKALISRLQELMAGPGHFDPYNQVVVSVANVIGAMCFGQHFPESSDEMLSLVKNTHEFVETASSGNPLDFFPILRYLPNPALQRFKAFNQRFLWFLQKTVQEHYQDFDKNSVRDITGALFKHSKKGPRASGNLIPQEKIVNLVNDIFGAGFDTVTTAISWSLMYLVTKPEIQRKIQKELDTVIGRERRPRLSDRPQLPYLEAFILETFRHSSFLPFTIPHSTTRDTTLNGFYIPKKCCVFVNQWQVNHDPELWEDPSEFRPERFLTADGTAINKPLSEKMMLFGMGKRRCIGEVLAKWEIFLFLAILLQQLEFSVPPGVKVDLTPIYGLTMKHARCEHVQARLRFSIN

CYP3A4 = CYP3A4 (Homo sapiens, UniProt P08684); test: Inhibition of human recombinant CYP3A4 at 10 uM relative to control; assay type: ADME
CYP3A4, sequence (P08684 whole entry): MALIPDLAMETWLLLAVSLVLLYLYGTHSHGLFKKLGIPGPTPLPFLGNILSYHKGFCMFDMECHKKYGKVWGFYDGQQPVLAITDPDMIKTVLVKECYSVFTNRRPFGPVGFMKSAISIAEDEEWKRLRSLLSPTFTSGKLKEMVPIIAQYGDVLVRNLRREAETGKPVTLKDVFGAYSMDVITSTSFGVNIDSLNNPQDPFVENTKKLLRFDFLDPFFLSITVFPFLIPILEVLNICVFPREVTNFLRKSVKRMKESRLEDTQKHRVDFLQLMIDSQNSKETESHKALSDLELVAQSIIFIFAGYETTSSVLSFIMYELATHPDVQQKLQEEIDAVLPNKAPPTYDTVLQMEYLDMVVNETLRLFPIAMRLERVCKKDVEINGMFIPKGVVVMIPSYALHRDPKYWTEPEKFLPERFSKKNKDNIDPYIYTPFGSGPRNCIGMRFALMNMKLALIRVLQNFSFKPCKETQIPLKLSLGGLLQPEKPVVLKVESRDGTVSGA

hERG = hERG (Homo sapiens, UniProt Q12809); test: Inhibition of hERG at 10 uM by fluorimetric analysis relative to control; assay type: toxicity
hERG, sequence (Q12809 whole entry): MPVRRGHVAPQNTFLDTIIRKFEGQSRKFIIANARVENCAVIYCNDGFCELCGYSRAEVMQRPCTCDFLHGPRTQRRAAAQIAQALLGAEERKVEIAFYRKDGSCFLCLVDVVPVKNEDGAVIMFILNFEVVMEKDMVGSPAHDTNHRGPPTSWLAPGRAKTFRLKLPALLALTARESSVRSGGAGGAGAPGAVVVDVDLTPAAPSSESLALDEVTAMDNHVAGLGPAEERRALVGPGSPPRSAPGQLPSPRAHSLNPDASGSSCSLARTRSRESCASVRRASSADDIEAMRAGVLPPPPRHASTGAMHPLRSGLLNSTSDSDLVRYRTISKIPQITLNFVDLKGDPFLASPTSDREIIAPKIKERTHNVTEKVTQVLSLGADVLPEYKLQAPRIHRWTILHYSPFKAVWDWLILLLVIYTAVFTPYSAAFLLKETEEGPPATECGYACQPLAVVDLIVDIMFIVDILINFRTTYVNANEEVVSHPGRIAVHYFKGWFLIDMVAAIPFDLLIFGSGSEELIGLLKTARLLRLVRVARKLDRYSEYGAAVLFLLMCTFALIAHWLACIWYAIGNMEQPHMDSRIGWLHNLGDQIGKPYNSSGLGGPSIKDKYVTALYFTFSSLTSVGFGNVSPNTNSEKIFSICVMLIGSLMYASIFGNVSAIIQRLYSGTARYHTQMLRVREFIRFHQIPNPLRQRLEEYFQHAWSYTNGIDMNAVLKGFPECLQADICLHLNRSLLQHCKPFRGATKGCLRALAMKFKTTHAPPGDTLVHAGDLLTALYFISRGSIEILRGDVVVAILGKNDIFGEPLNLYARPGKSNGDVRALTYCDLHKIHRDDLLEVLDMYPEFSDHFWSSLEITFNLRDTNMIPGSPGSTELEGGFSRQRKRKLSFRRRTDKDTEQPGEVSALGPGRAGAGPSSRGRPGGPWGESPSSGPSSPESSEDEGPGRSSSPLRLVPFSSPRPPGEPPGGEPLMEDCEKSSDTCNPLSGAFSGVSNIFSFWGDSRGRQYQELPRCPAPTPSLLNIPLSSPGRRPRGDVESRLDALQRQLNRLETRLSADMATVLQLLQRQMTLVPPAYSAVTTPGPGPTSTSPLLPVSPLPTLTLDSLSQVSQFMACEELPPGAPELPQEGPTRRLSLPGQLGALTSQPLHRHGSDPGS

[8] = Drug uptake in RjOrl:Swiss (CD-1) mouse brain at 10 mg/kg, iv administered measured after 2 hrs by LC-MS/MS analysis; assay type: ADME, organism-based; conditions: read-out: Ct
[9] = Ratio of drug concentration in RjOrl:Swiss (CD-1) mouse brain to plasma at 10mg/kg, iv administered measured after 2 hrs by LC-MS/MS analysis; assay type: ADME, organism-based; conditions: brain and plasma, read-out: BPR
[10] = Drug concentration in mouse C57BL/6 brain at 0.4 mg/kg,po measured at 2 hrs by LC-MS/MS analysis; assay type: ADME, organism-based; conditions: C57BL/6, mouse, read-out: Drug uptake
[11] = Drug concentration in mouse C57BL/6 brain at 0.4 mg/kg,iv measured at 2 hrs by LC-MS/MS analysis; assay type: ADME, organism-based; conditions: C57BL/6, mouse, read-out: Drug uptake
Blood [12] = test: Antiinflammatory activity against LPS-stimulated C57BL/6 mouse whole blood assessed as reduction in IL-6 incubated for 24 hrs by ELISA based method; assay type: functional; parameters: scale not given: the % may be the effect or the level left; conditions: dose 1-100 nM, at 1 to 100 nM
Blood [13] = test: Antiinflammatory activity against LPS-stimulated C57BL/6 mouse whole blood assessed as reduction in TNF-alpha at 10 nM incubated for 24 hrs by ELISA based method; assay type: functional; conditions: C57BL/6, Blood
[14] = Ratio of drug concentration in rat brain to plasma; conditions: brain and plasma
[15] = Drug concentration in rat plasma at 1.5 mg/kg, po measured after 1 hrs by LC/MS/MS analysis; assay type: ADME, organism-based
[16] = Drug concentration in rat plasma at 4.5 mg/kg, po measured after 1 hrs by LC/MS/MS analysis; assay type: ADME, organism-based
[17] = Drug concentration in rat brain at 1.5 mg/kg, po measured after 1 hrs by LC/MS/MS analysis; assay type: ADME, organism-based; conditions: in vivo
[18] = Drug concentration in rat brain at 4.5 mg/kg, po measured after 1 hrs by LC/MS/MS analysis; assay type: ADME, organism-based; conditions: in vivo
Splenocyte [19] = test: Antiinflammatory activity against LPS-stimulated Balb/c mouse splenocytes assessed as reduction in IL-6 at 100 nM incubated for 24 hrs by ELISA based method; assay type: functional; parameters: scale not given: the % may be the effect or the level left
[20] = Drug concentration in rat plasma at 6 mg/kg, iv measured after 24 hrs by LC/MS/MS analysis
[21] = Drug concentration in rat brain at 6 mg/kg, iv measured after 24 hrs by LC/MS/MS analysis; conditions: in vivo

SMILES	Activity (Splenocyte [1])	Drug uptake [2]	Drug uptake [3]	remaining at 2 h [4]	IC50 [5]	viability at 24 h, 0.1 µM [6]	Activity (Blood [7])	also measured
COC(=O)[C@@H](N)CCNC(=O)c1ccc2c(c1)C(=O)c1ccc(Nc3ccc(F)cc3F)cc1CC2	Non-Toxic	Not Active	Not Active	6%	2.3 nM	66%	5%	
O=C(NCCN1CC2(COC2)C1)c1ccc2c(c1)C(=O)c1ccc(Nc3ccc(F)cc3F)cc1CC2				47%	5.9 nM			inhibition at 10 µM (CYP2C19): 93.6%; inhibition at 10 µM (CYP2D6): 18.3%; inhibition at 10 µM (CYP2C9): 88.7%; inhibition at 10 µM (CYP1A2): 0%; inhibition at 10 µM (CYP3A4): 83.6%; inhibition at 10 µM (hERG): 76.6%; concentration at 2 h [8]: 68 ng/g; Kp at 2 h [9]: 0.16
O=C(O)CCNC(=O)c1ccc2c(c1)C(=O)c1ccc(Nc3ccc(F)cc3F)cc1CC2	Non-Toxic			97%	5.5 nM	66%	5%	inhibition at 10 µM (CYP2C19): 100%; inhibition at 10 µM (CYP2D6): 3%; inhibition at 10 µM (CYP2C9): 98.5%; inhibition at 10 µM (CYP1A2): 33.6%; inhibition at 10 µM (CYP3A4): 54.8%; inhibition at 10 µM (hERG): 11.8%; concentration at 2 h [8]: 103 ng/g; Kp at 2 h [9]: 1.25
NCCNC(=O)c1ccc2c(c1)C(=O)c1ccc(Nc3ccc(F)cc3F)cc1CC2	Non-Toxic	Not Active	Not Active		2.5 nM	66%	5%	
CSCC[C@H](NC(=O)c1ccc2c(c1)C(=O)c1ccc(Nc3ccc(F)cc3F)cc1CC2)C(=O)O		Not Active	Not Active		11 nM			
CNC(=O)c1ccc2c(c1)C(=O)c1ccc(Nc3ccccc3N)cc1CC2	Non-Toxic			3%	5.7 nM	66%		concentration at 2 h [10]: 20 nM; concentration at 2 h [11]: 20 nM
O=C(NC(CO)(CO)CO)c1ccc2c(c1)C(=O)c1ccc(Nc3ccc(F)cc3F)cc1CC2	Non-Toxic	Not Active	Not Active		3 nM	66%	5%	
O=C(O)CCCNC(=O)c1ccc2c(c1)C(=O)c1ccc(Nc3ccc(F)cc3F)cc1CC2	Non-Toxic			99%	12 nM	66%		Activity (Blood [12]): 71%; inhibition at 10 µM (CYP2C19): 63.2%; inhibition at 0.01 µM (Blood [13]): 50%; inhibition at 10 µM (CYP2D6): 2%; inhibition at 10 µM (CYP2C9): 66%; inhibition at 10 µM (CYP1A2): 16.2%; inhibition at 10 µM (CYP3A4): 38.1%; inhibition at 10 µM (hERG): 14.4%; concentration at 2 h [8]: 98.2 ng/g; Kp at 2 h [9]: 4.38
COC(=O)CCNC(=O)c1ccc2c(c1)C(=O)c1ccc(Nc3ccc(F)cc3F)cc1CC2	Non-Toxic			0%	1.2 nM	66%		Activity (Blood [12]): 85%; inhibition at 10 µM (CYP2C19): 100%; inhibition at 0.01 µM (Blood [13]): 50%; inhibition at 10 µM (CYP2D6): 73.7%; inhibition at 10 µM (CYP2C9): 99.4%; inhibition at 10 µM (CYP1A2): 27.3%; inhibition at 10 µM (CYP3A4): 68%; inhibition at 10 µM (hERG): 59.9%
O=C(O)CNC(=O)c1ccc2c(c1)C(=O)c1ccc(Nc3ccc(F)cc3F)cc1CC2				93%	9.3 nM			concentration at 2 h [8]: 8.2 ng/g; Kp at 2 h [9]: 0.13
O=c1ncn2nc(Sc3ccc(F)cc3F)ccc2c1-c1c(Cl)cccc1Cl [NEFLAMAPIMOD]								Kp [14]: 1.7; concentration at 1 h [15]: 33 ng/mL; concentration at 1 h [16]: 92 ng/mL; Ct [17]: 129 nmol/kg; Ct [18]: 359 nmol/kg
O=C(Nc1ccccc1)c1ccc2c(c1)C(=O)c1ccc(Nc3ccc(F)cc3F)cc1CC2	Non-Toxic	Not Active	Not Active		2.4 nM	66%	5%	Activity (Splenocyte [19]): 51%
COC(=O)CCNC(=O)c1ccc2c(c1)C(=O)c1ccc(Nc3ccccc3N)cc1CC2	Non-Toxic				29 nM	66%		Activity (Blood [12]): 81%; inhibition at 0.01 µM (Blood [13]): 50%
O=C(NCCOCCO)c1ccc2c(c1)C(=O)c1ccc(Nc3ccc(F)cc3F)cc1CC2	Non-Toxic	Not Active	Not Active		10 nM	66%	5%	
CN1CCN(c2cc(-c3ccncc3)c(-c3ccc4ccccc4c3)nn2)CC1 [MW-150]								concentration at 24 h [20]: 390 ng/mL; Ct [21]: 1030 nmol/kg

From ChEMBL document CHEMBL5042473 (J Med Chem, 2022)
